Experimental data from patent US7776826B2, “Method for fostering bone formation and preservation” (Unigene Laboratories, Inc., priority 2004, dated 2010).
Where no end group is shown, it is not given here.

How the values were obtained:
Assay type in all cases: in vivo, rat
[1] = system: osteoporotic female Sprague-Dawley rats; assay: Lumbar vertebral bone mineral density and bone formation rate in ovariectomized osteoporotic rats, without mechanical induction; conditions: OVX rats, 4 weeks subcutaneous treatment, no mechanical induction
Description: FIG. 15 is a bar graph comparing the Lumbar Vertebral Bone Mineral Density obtained in osteoporotic female Sprague-Dawley rats wherein the osteoporosis was induced via an ovariectomy. The rats were treated with (1) PTH[1-31]-NH2; (2) PTH[1-34]-NH2; and PTH[1-34]-OH; and
FIG. 16 is a bar graph comparing the Lumbar Vertebral Bone Formation Rate obtained in osteoporotic female Sprague-Dawley rats wherein the osteoporosis was induced via an ovariectomy. The rats were treated with (1) PTH[1-31]-NH2; (2) PTH[1-34]-NH2; and PTH[1-34]-OH.
A series of experiments was performed comparing (1) lumbar vertebral bone mineral density, and (2) lumbar vertebral bone formation rate achieved with PTH[1-31]-NH2 and PTH[1-34]-OH compared to the preferred PTH[1-34]-NH2 analog discussed above in the absence of the mechanical induction step of the invention. The study involved a four-week treatment of female Sprague-Dawley rats at 10 months of age, and 6 months post-ovariectomy (“OVX”), which induces osteoporosis, with one of the three above-noted parathyroid hormone truncates. The rats were randomized into the following groups: sham OVX, OVX+ vehicle, OVX+PTH [1-31]-NH2 or PTH [1-34]-NH2 (obtained from Unigene Laboratories, Inc.) at 2.5, 10 or 40 μg/kg/day subcutaneous, or PTH[1-34]-OH (obtained from Bachem) at 10 μg/kg/day subcutaneous. After 4 weeks of treatment, the right femur of each animal was analyzed by DEXA and bone histomorphometry. FIG. 15 is a bar graph providing a comparison of the lumbar vertebral bone mineral density achieved with PTH[1-31]-NH2, PTH[1-34]-NH2 and PTH[1-34]-OH. FIG. 16 is a bar graph comparing the lumbar vertebral formation rates achieved with these same truncates. […] Because of the similarity of anabolic action among the above-discussed parathyroid hormones, it is therefore reasonable to expect that all known PTH analogs will advantageously function in the desired manner in the method of the present invention.

Male Sprague-Dawley rats [2] = assay: MicroCT analysis of femoral shafts, Groups K-R; conditions: left femoral shaft with bmx, agent for 21 days
From the text: FIG. 13(a-b) illustrate the results of Micro Computerized Tomography (MicroCT) analysis of the left (ablated) and right (non-ablated) femoral shafts of the rats of Groups K-R. The abbreviations are the same as those used in FIGS. 10-12;
FIG. 13 (a-b) provides a comparison between Micro Computerized Tomography (MicroCT) analyses of bone samples taken from the left femoral shaft (FIG. 13a) and the right femoral shaft (FIG. 13b) of rats treated in the manner indicated in FIGS. 10-12. As in the other cases discussed above, the most significant amount of new bone growth is found in the shaft of the left femur, since this shaft was subjected to the bmx treatment. […] In contrast, the right femoral shaft sections show very little or no increase in bone growth at all.

Male Sprague-Dawley rats [3] = assay: Serum osteocalcin concentration at day 21, Groups K-R; conditions: for osteocalcin level, in words: bmx + agent daily for 21 days; for Osteocalcin mean: bmx rats, day 21, agent daily for 21 days, Groups K-R
From the text: FIG. 12 provides a measurement of the serum osteocalcin concentration (in ng/ml) in the blood of the rats in Groups K-R when the rats were sacrificed 21 days after commencement of treatment. The meaning of the abbreviated terms is the same as in FIGS. 10 and 11. […] [*=p value<0.05, while **=p value<0.01];
FIG. 12 is a bar graph which sets forth the osteocalcin levels determined, at the time of sacrifice, in the blood serum of the rats which were the subject of the analyses illustrated in FIGS. 10 and 11. As indicated above, it is well known that osteocalcin is a biochemical marker indicative of new bone growth.
The table additionally includes the standard deviations for the values obtained for each analysis, which standard deviations are also included in FIG. 12.

Male Sprague-Dawley rats [4] = assay: pQCT analysis of left and right femoral shafts at day 21, Groups K-R; conditions: for Left femoral shaft Total density mean / Left femoral shaft Trabecular density mean: ablated femur; for Left femoral shaft Total density mean / Left femoral shaft Trabecular density mean / Right femoral shaft Total density mean / Right femoral shaft Trabecular density mean: day 21, agent daily for 21 days, Groups K-R; for trabecular bone density of left femoral shaft, in words: bmx, day 21; for Right femoral shaft Total density mean / Right femoral shaft Trabecular density mean: non-ablated femur
From the text: (§1) FIG. 10 (a-b) presents high resolution radiograms of the left and right femurs, respectively, from an additional series of experiments on additional groups of male Sprague-Dawley rats (6 rats per group) aged 9 weeks which were sacrificed and tested after 21 days (3 weeks). The various groups were subjected to the following treatment modalities: Group K—control day 0; Group L—control day 21; Group M—bone marrow ablation (bmx) day 0; Group N—sham day 21; Group O— bmx+phosphate buffer saline (PBS) daily for 21 days; Group P—bmx+PTH[1-34]-NH2 daily for 21 days; Group Q—bmx+ parathyroid hormone related peptide (PTHRP) daily for 21 days; and Group R—bmx+rat α-calcitonin gene related peptide (CGRP) daily for 21 days;
FIG. 11 (a-d) are graphical representations of the results of Peripheral Quantitative Computerized Tomography (PQCT) analyses of, respectively, the left (ablated) and right (non-ablated) femoral shafts of the rats from Groups K-R (see description of FIG. 10). FIGS. 11(a) and 11(b) illustrate the trabecular bone density observed in, respectively the left and right femoral shafts at day 21; whereas, FIGS. 11(c) and 11(d) illustrate the total bone density of, respectively, the left and right femoral shafts at the same interval. The meanings of the abbreviations used in FIGS. 11(a-d) are identical to those described above with regard to FIG. 10. […] [+=p value<0.01 vs. sham; *=p value<0.01 vs. bmx+PTH; **=p value<0.01 vs. bmx+PTH; and #=p value<0.05 vs. PBS];
An additional series of experiments was thereafter carried out with additional groups of rats (K-R) in order to (1) measure the effect of additional bone anabolic agents, i.e., other than parathyroid hormone (PTH[1-34]-NH2) and calcitonin, as well as to compare the effect(s) achieved with such parathyroid hormone with those obtained with the use of alternate anabolic agents, including parathyroid hormone related peptide (PTHrP) and calcitonin gene related peptide (CGRP). As in the case of the analyses discussed above with regard to FIGS. 3-9, in the animals tested only the left femur underwent the bone marrow ablation (bmx) procedure, i.e., there was no ablation of the right femur. Thus, as noted above, any views of the right femur in the figures described below indicating bone marrow ablation (bmx) as a treatment modality should be taken to mean that such treatment was applied to the corresponding left femur. Further, as was additionally the case above, the samples described below with regard to FIGS. 10-13 were taken from the femur shafts, rather than the corresponding distal epiphysis as in the case of FIGS. 1 and 2. The figures discussed below depict the results of end-point studies wherein the measurements were taken only at the 21 day end-point.
FIG. 11 (a-d) graphically illustrates, by means of a bar graph, the improvements in trabecular bone density and, to some extent, total bone density, in the left femoral shaft of rats subjected to the treatment modalities described above with regard to FIG. 10 (a-b); that is, control day 0; bmx day 0; control day 21; sham day 21; bmx+PBS on day 21; bmx+PTH on day 21; bmx+PTHrP on day 21; and bmx+CGRP on day 21. Again, this is attributable that (only) the left femur was subjected to the bmx treatment, and thus was the only femur wherein the effects of such bmx treatment overlapped with that of the systemic treatment with the bone anabolic agent. […] In contrast to the values obtained for the left femur, no significant amount of bone was formed in the right femur, notwithstanding whether it is trabecular bone density or total bone density which is being measured. This lack of new bone is, furthermore, attributable to the fact that the right femur had not been subjected to the bone marrow ablation (bmx) treatment.

Male Sprague-Dawley rats [5] = assay: High resolution radiograms of left and right femurs, Groups K-R; conditions: left femur with bmx, agent daily for 21 days
From the text: as §1
FIG. 10 (a-b) presents a set of high resolution radiograms of the entire left and right femurs of additional (to those described above) groups of rats, injected daily for a designated term with one or more of the following agents: phosphate buffer saline (PBS); parathyroid hormone (PTH[1-34]-NH2); parathyroid hormone related peptide (PTHrP); and calcitonin gene related peptide (CGRP). The rats chosen for test subjects were subjected to the following treatment modalities (as indicated in the lower left corner of each of the radiograms): control day 0; control day 21; bone marrow ablation (bmx) day 0; sham day 21; bmx followed by injection of PBS buffer daily for 21 days; bmx followed by injection of PTH daily for 21 days; bmx followed by injection of PTHrP daily for 21 days; and bmx followed by injection of CGRP daily for 21 days.
As shown by FIG. 10(a), the best results, i.e., the greatest bone density, was obtained in the left femur wherein the effect of the bone marrow ablation overlapped with that attributable to the administration of the various anabolic agents. As in the case of FIG. 3, the lighter, i.e, more radio-opaque, areas indicate the locations of the greatest additional bone growth.

Row | Compound | bone anabolic activity (lumbar vertebral bone mineral density and bone formation rate) [1] | new bone growth in MicroCT, in words (Male Sprague-Dawley rats [2]) | osteocalcin level, in words (Male Sprague-Dawley rats [3]) | Osteocalcin mean (Male Sprague-Dawley rats [3]) | Left femoral shaft Total density mean (Male Sprague-Dawley rats [4]) | Left femoral shaft Trabecular density mean (Male Sprague-Dawley rats [4]) | trabecular bone density of left femoral shaft, in words (Male Sprague-Dawley rats [4]) | Right femoral shaft Total density mean (Male Sprague-Dawley rats [4]) | Right femoral shaft Trabecular density mean (Male Sprague-Dawley rats [4]) | bone density on radiograms, in words (Male Sprague-Dawley rats [5])
1 | CC[C@H](C)[C@H](NC(=O)[C@H](CCC(=O)O)NC(=O)[C@H](CO)NC(=O)[C@@H](NC(=O)[C@@H](N)CO)C(C)C)C(=O)N[C@@H](CCC(N)=O)C(=O)N[C@@H](CC(C)C)C(=O)N[C@@H](CCSC)C(=O)N[C@@H](Cc1cnc[nH]1)C(=O)N[C@@H](CC(N)=O)C(=O)N[C@@H](CC(C)C)C(=O)NCC(=O)N[C@@H](CCCCN)C(=O)N[C@@H](Cc1cnc[nH]1)C(=O)N[C@@H](CC(C)C)C(=O)N[C@@H](CC(N)=O)C(=O)N[C@@H](CO)C(=O)N[C@@H](CCSC)C(=O)N[C@@H](CCC(=O)O)C(=O)N[C@@H](CCCN=C(N)N)C(=O)N[C@H](C(=O)N[C@@H](CCC(=O)O)C(=O)N[C@@H](Cc1c[nH]c2ccccc12)C(=O)N[C@@H](CC(C)C)C(=O)N[C@@H](CCCN=C(N)N)C(=O)N[C@@H](CCCCN)C(=O)N[C@@H](CCCCN)C(=O)N[C@@H](CC(C)C)C(=O)N[C@@H](CCC(N)=O)C(=O)N[C@@H](CC(=O)O)C(=O)N[C@H](C(=O)N[C@@H](Cc1cnc[nH]1)C(=O)N[C@@H](CC(N)=O)C(=O)N[C@@H](Cc1ccccc1)C(=O)O)C(C)C)C(C)C [PTH[1-34]-OH, reference compound] | substantially equivalent |  |  |  |  |  |  |  |  | 
2 | PTH[1-31]-NH2 (SVSEIQLMHNLGKHLNSMERVEWLRKKLQDV-NH2; UniProt P01270 32-62, looked up, fragment) [amidated parathyroid hormone truncate obtained from Unigene Laboratories] | substantially equivalent |  |  |  |  |  |  |  |  | 
3 | parathyroid hormone related peptide [PTHRP] |  | significant degree of improvement | Significant new bone growth | 124.2 ng/mL | 1017.9 mg/mL | 403.1 mg/mL | significantly improved | 858.2 mg/mL | 122.4 mg/mL | satisfactory results
4 | rat α-calcitonin gene related peptide [CGRP] |  | new bone growth, although lesser in scope | no increase | 97 ng/mL | 963.5 mg/mL | 283.5 mg/mL | significantly improved | 831.1 mg/mL | 115.5 mg/mL | satisfactory results
